Experimental data as given in US10227344B2, “CK2 inhibitors, compositions and methods thereof” (Polaris Pharmaceuticals, Inc., priority 2016, dated 2019).

Assays:
Type in all cases: cell-based
PC3 = assay: Cancer cell panel, cell viability (resazurin): Prostate, PC3; details: 72 hours, labelled drug combined with Example 3
SKOV-3 = assay: Cancer cell panel, cell viability (resazurin): Ovarian, SKOV-3; details: SKOV-3 (Ovarian), 72 hours; labelled drug combined with Example 3
OVCAR-3 = assay: Cancer cell panel, cell viability (resazurin): Ovarian, OVCAR-3; details: OVCAR-3 (Ovarian), 72 hours; labelled drug combined with Example 3
A2780 = assay: Cancer cell panel, cell viability (resazurin): Ovarian, A2780; details: 72 hours, labelled drug combined with Example 3
Caov-3 = assay: Cancer cell panel, cell viability (resazurin): Ovarian, Caov-3; details: Caov-3 (Ovarian), 72 hours; labelled drug combined with Example 3
Mia-Paca-2 = assay: Cancer cell panel, cell viability (resazurin): Pancreatic, Mia-Paca-2; details: Mia-Paca-2 (Pancreatic), 72 hours; labelled drug combined with Example 3
Panc-1 = assay: Cancer cell panel, cell viability (resazurin): Pancreatic, Panc-1; details: Panc-1 (Pancreatic), 72 hours; labelled drug combined with Example 3
Experimental: (§1) Cells were plated in 96-well plates and treated for 72 hours with a serially diluted CK2 inhibitor or anti-cancer drug or their combination. The suspension cell lines were treated right after plating, while the adherent cells were allowed to attach overnight prior to the start of the treatment.
(§2) Cell viability was determined by adding resazurin to cell cultures and measuring fluorescence with a plate reader. Relative cell viability was calculated by dividing the cell viability signal from a test sample by that of a non-treated control. […] Bliss Independence and Highest Single Agent models were used to determine if there is synergy, additivity or antagonism between the CK2 inhibitor and an anti-cancer drug.

BxPC3 = assay: Cancer cell panel, cell viability (resazurin): Pancreatic, BxPC3; details: 72 hours, labelled drug combined with Example 3
Experimental: as §1, §2

HCT116 = assay: Cancer cell panel, cell viability (resazurin): Colon, HCT116; details: 72 hours, labelled drug combined with Example 3
HT29 = assay: Cancer cell panel, cell viability (resazurin): Colon, HT29; details: 72 hours, labelled drug combined with Example 3
Experimental: as §1, §2

Colo205 = assay: Cancer cell panel, cell viability (resazurin): Colon, Colo205; details: 72 hours, labelled drug combined with Example 3
LoVo = assay: Cancer cell panel, cell viability (resazurin): Colon, LoVo; details: 72 hours, labelled drug combined with Example 3
Experimental: as §1, §2

DLD-1 = assay: Cancer cell panel, cell viability (resazurin): Colon, DLD-1; details: DLD-1 (Colon), 72 hours; labelled drug combined with Example 3
H1299 = assay: Cancer cell panel, cell viability (resazurin): NSCLC, H1299; details: 72 hours, labelled drug combined with Example 3
Experimental: as §1, §2

A549 = assay: Cancer cell panel, cell viability (resazurin): NSCLC, A549; details: 72 hours, labelled drug combined with Example 3
H460 = assay: Cancer cell panel, cell viability (resazurin): NSCLC, H460; details: 72 hours, labelled drug combined with Example 3
Experimental: as §1, §2

H1975 = assay: Cancer cell panel, cell viability (resazurin): NSCLC, H1975; details: 72 hours, labelled drug combined with Example 3
H23 = assay: Cancer cell panel, cell viability (resazurin): NSCLC, H23; details: 72 hours, labelled drug combined with Example 3
H2122 = assay: Cancer cell panel, cell viability (resazurin): NSCLC, H2122; details: 72 hours, labelled drug combined with Example 3
SkBr-3 = assay: Cancer cell panel, cell viability (resazurin): Breast, SkBr-3; details: SkBr-3 (Breast), 72 hours; labelled drug combined with Example 3
Experimental: as §1, §2

MDA-MB-453 = assay: Cancer cell panel, cell viability (resazurin): Breast, MDA-MB-453; details: MDA-MB-453 (Breast), 72 hours; labelled drug combined with Example 3
Experimental: as §1, §2

MDA-MB-231 = assay: Cancer cell panel, cell viability (resazurin): Breast, MDA-MB-231; details: MDA-MB-231 (Breast), 72 hours; labelled drug combined with Example 3
MDA-MB-157 = assay: Cancer cell panel, cell viability (resazurin): Breast, MDA-MB-157; details: MDA-MB-157 (Breast), 72 hours; labelled drug combined with Example 3
BT-20 = assay: Cancer cell panel, cell viability (resazurin): Breast, BT-20; details: BT-20 (Breast), 72 hours; labelled drug combined with Example 3
Experimental: as §1, §2

BT-474 = assay: Cancer cell panel, cell viability (resazurin): Breast, BT-474; details: BT-474 (Breast), 72 hours; labelled drug combined with Example 3
T47D = assay: Cancer cell panel, cell viability (resazurin): Breast, T47D; details: 72 hours, labelled drug combined with Example 3
MCF7 = assay: Cancer cell panel, cell viability (resazurin): Breast, MCF7; details: 72 hours, labelled drug combined with Example 3
Experimental: as §1, §2

ACHN = assay: Cancer cell panel, cell viability (resazurin): Renal, ACHN; details: 72 hours, labelled drug combined with Example 3
Experimental: as §1, §2

Caki-1 = assay: Cancer cell panel, cell viability (resazurin): Renal, Caki-1; details: Caki-1 (Renal), 72 hours; labelled drug combined with Example 3
Caki-2 = assay: Cancer cell panel, cell viability (resazurin): Renal, Caki-2; details: Caki-2 (Renal), 72 hours; labelled drug combined with Example 3
A375 = assay: Cancer cell panel, cell viability (resazurin): Melanoma, A375; details: 72 hours, labelled drug combined with Example 3
Experimental: as §1, §2

SK-MEL-24 = assay: Cancer cell panel, cell viability (resazurin): Melanoma, SK-MEL-24; details: SK-MEL-24 (Melanoma), 72 hours; labelled drug combined with Example 3
Experimental: as §1, §2

WM-115 = assay: Cancer cell panel, cell viability (resazurin): Melanoma, WM-115; details: WM-115 (Melanoma), 72 hours; labelled drug combined with Example 3
Experimental: as §1, §2

U266 = assay: Cancer cell panel, cell viability (resazurin): multiple myeloma, U266; details: 72 hours, labelled drug combined with Example 3
RPMI8226 = assay: Cancer cell panel, cell viability (resazurin): multiple myeloma, RPMI8226; details: 72 hours, labelled drug combined with Example 3
Ramos = assay: Cancer cell panel, cell viability (resazurin): Burkitt's Lymphoma, Ramos; details: 72 hours, labelled drug combined with Example 3
Raji = assay: Cancer cell panel, cell viability (resazurin): Burkitt's Lymphoma, Raji; details: 72 hours, labelled drug combined with Example 3
Daudi = assay: Cancer cell panel, cell viability (resazurin): Burkitt's Lymphoma, Daudi; details: 72 hours, labelled drug combined with Example 3
K562 = assay: Cancer cell panel, cell viability (resazurin): Leukemia, K562; details: 72 hours, labelled drug combined with Example 3
HL60 = assay: Cancer cell panel, cell viability (resazurin): Leukemia, HL60; details: 72 hours, labelled drug combined with Example 3
Experimental: as §1, §2

EOL-1 = assay: Cancer cell panel, cell viability (resazurin): Leukemia, EOL-1; details: EOL-1 (Leukemia), 72 hours; labelled drug combined with Example 3

CC(C)C[C@H](NC(=O)[C@H](Cc1ccccc1)NC(=O)c1cnccn1)B(O)O [Bortezomib, bortezomib]
synergy, additivity or antagonism of the combination of Example 3 with the anti-cancer drug (PC3): + (Additive relative to each agent alone (CI = 0.9-1 by Bliss Independence Model and <0.9 by Highest Single Agent Model))
synergy, additivity or antagonism of the combination of Example 3 with the anti-cancer drug (SKOV-3): + + + (Synergy relative to each agent alone (CI = 0.4-0.74 by Bliss Independence Model))
synergy, additivity or antagonism of the combination of Example 3 with the anti-cancer drug (OVCAR-3): + (Additive relative to each agent alone (CI = 0.9-1 by Bliss Independence Model and <0.9 by Highest Single Agent Model))
synergy, additivity or antagonism of the combination of Example 3 with the anti-cancer drug (A2780): + + (Slight synergy relative to each agent alone (CI = 0.75-0.9 by Bliss Independence Model))
synergy, additivity or antagonism of the combination of Example 3 with the anti-cancer drug (Caov-3): + (Additive relative to each agent alone (CI = 0.9-1 by Bliss Independence Model and <0.9 by Highest Single Agent Model))
synergy, additivity or antagonism of the combination of Example 3 with the anti-cancer drug (Mia-Paca-2): + + (Slight synergy relative to each agent alone (CI = 0.75-0.9 by Bliss Independence Model))
synergy, additivity or antagonism of the combination of Example 3 with the anti-cancer drug (Panc-1): + (Additive relative to each agent alone (CI = 0.9-1 by Bliss Independence Model and <0.9 by Highest Single Agent Model))
synergy, additivity or antagonism of the combination of Example 3 with the anti-cancer drug (BxPC3): + + + (Synergy relative to each agent alone (CI = 0.4-0.74 by Bliss Independence Model))
synergy, additivity or antagonism of the combination of Example 3 with the anti-cancer drug (HCT116): + + (Slight synergy relative to each agent alone (CI = 0.75-0.9 by Bliss Independence Model))
synergy, additivity or antagonism of the combination of Example 3 with the anti-cancer drug (HT29): + (Additive relative to each agent alone (CI = 0.9-1 by Bliss Independence Model and <0.9 by Highest Single Agent Model))
synergy, additivity or antagonism of the combination of Example 3 with the anti-cancer drug (Colo205): − (Slightly antagonistic relative to each agent alone (CI = 1.1-1.2 by Highest Single Agent Model))
synergy, additivity or antagonism of the combination of Example 3 with the anti-cancer drug (LoVo): + (Additive relative to each agent alone (CI = 0.9-1 by Bliss Independence Model and <0.9 by Highest Single Agent Model))
synergy, additivity or antagonism of the combination of Example 3 with the anti-cancer drug (DLD-1): + + + (Synergy relative to each agent alone (CI = 0.4-0.74 by Bliss Independence Model))
synergy, additivity or antagonism of the combination of Example 3 with the anti-cancer drug (H1299): + (Additive relative to each agent alone (CI = 0.9-1 by Bliss Independence Model and <0.9 by Highest Single Agent Model))
synergy, additivity or antagonism of the combination of Example 3 with the anti-cancer drug (A549): + + + (Synergy relative to each agent alone (CI = 0.4-0.74 by Bliss Independence Model))
synergy, additivity or antagonism of the combination of Example 3 with the anti-cancer drug (H460): + + (Slight synergy relative to each agent alone (CI = 0.75-0.9 by Bliss Independence Model))
synergy, additivity or antagonism of the combination of Example 3 with the anti-cancer drug (H1975): + (Additive relative to each agent alone (CI = 0.9-1 by Bliss Independence Model and <0.9 by Highest Single Agent Model))
synergy, additivity or antagonism of the combination of Example 3 with the anti-cancer drug (H23): + (Additive relative to each agent alone (CI = 0.9-1 by Bliss Independence Model and <0.9 by Highest Single Agent Model))
synergy, additivity or antagonism of the combination of Example 3 with the anti-cancer drug (H2122): + (Additive relative to each agent alone (CI = 0.9-1 by Bliss Independence Model and <0.9 by Highest Single Agent Model))
synergy, additivity or antagonism of the combination of Example 3 with the anti-cancer drug (SkBr-3): + (Additive relative to each agent alone (CI = 0.9-1 by Bliss Independence Model and <0.9 by Highest Single Agent Model))
synergy, additivity or antagonism of the combination of Example 3 with the anti-cancer drug (MDA-MB-453): + (Additive relative to each agent alone (CI = 0.9-1 by Bliss Independence Model and <0.9 by Highest Single Agent Model))
synergy, additivity or antagonism of the combination of Example 3 with the anti-cancer drug (MDA-MB-231): + (Additive relative to each agent alone (CI = 0.9-1 by Bliss Independence Model and <0.9 by Highest Single Agent Model))
synergy, additivity or antagonism of the combination of Example 3 with the anti-cancer drug (MDA-MB-157): + + + (Synergy relative to each agent alone (CI = 0.4-0.74 by Bliss Independence Model))
synergy, additivity or antagonism of the combination of Example 3 with the anti-cancer drug (BT-20): + + (Slight synergy relative to each agent alone (CI = 0.75-0.9 by Bliss Independence Model))
synergy, additivity or antagonism of the combination of Example 3 with the anti-cancer drug (BT-474): + + (Slight synergy relative to each agent alone (CI = 0.75-0.9 by Bliss Independence Model))
synergy, additivity or antagonism of the combination of Example 3 with the anti-cancer drug (T47D): + (Additive relative to each agent alone (CI = 0.9-1 by Bliss Independence Model and <0.9 by Highest Single Agent Model))
synergy, additivity or antagonism of the combination of Example 3 with the anti-cancer drug (MCF7): − − (Antagonistic relative to each agent alone (CI = 1.2-1.49 by Highest Single Agent Model))
synergy, additivity or antagonism of the combination of Example 3 with the anti-cancer drug (ACHN): + + (Slight synergy relative to each agent alone (CI = 0.75-0.9 by Bliss Independence Model))
synergy, additivity or antagonism of the combination of Example 3 with the anti-cancer drug (Caki-1): + (Additive relative to each agent alone (CI = 0.9-1 by Bliss Independence Model and <0.9 by Highest Single Agent Model))
synergy, additivity or antagonism of the combination of Example 3 with the anti-cancer drug (Caki-2): + (Additive relative to each agent alone (CI = 0.9-1 by Bliss Independence Model and <0.9 by Highest Single Agent Model))
synergy, additivity or antagonism of the combination of Example 3 with the anti-cancer drug (A375): + (Additive relative to each agent alone (CI = 0.9-1 by Bliss Independence Model and <0.9 by Highest Single Agent Model))
synergy, additivity or antagonism of the combination of Example 3 with the anti-cancer drug (SK-MEL-24): + + + (Synergy relative to each agent alone (CI = 0.4-0.74 by Bliss Independence Model))
synergy, additivity or antagonism of the combination of Example 3 with the anti-cancer drug (WM-115): + + (Slight synergy relative to each agent alone (CI = 0.75-0.9 by Bliss Independence Model))
synergy, additivity or antagonism of the combination of Example 3 with the anti-cancer drug (U266): + (Additive relative to each agent alone (CI = 0.9-1 by Bliss Independence Model and <0.9 by Highest Single Agent Model))
synergy, additivity or antagonism of the combination of Example 3 with the anti-cancer drug (RPMI8226): + (Additive relative to each agent alone (CI = 0.9-1 by Bliss Independence Model and <0.9 by Highest Single Agent Model))
synergy, additivity or antagonism of the combination of Example 3 with the anti-cancer drug (Ramos): + (Additive relative to each agent alone (CI = 0.9-1 by Bliss Independence Model and <0.9 by Highest Single Agent Model))
synergy, additivity or antagonism of the combination of Example 3 with the anti-cancer drug (Raji): + + (Slight synergy relative to each agent alone (CI = 0.75-0.9 by Bliss Independence Model))
synergy, additivity or antagonism of the combination of Example 3 with the anti-cancer drug (Daudi): + (Additive relative to each agent alone (CI = 0.9-1 by Bliss Independence Model and <0.9 by Highest Single Agent Model))
synergy, additivity or antagonism of the combination of Example 3 with the anti-cancer drug (K562): + (Additive relative to each agent alone (CI = 0.9-1 by Bliss Independence Model and <0.9 by Highest Single Agent Model))
synergy, additivity or antagonism of the combination of Example 3 with the anti-cancer drug (HL60): + (Additive relative to each agent alone (CI = 0.9-1 by Bliss Independence Model and <0.9 by Highest Single Agent Model))
synergy, additivity or antagonism of the combination of Example 3 with the anti-cancer drug (EOL-1): + + (Slight synergy relative to each agent alone (CI = 0.75-0.9 by Bliss Independence Model))
